Assay results: the supplement of paper PMC10307832

What was measured:
Test in all cases: relative viability (nuclei count vs DMSO), 5 days (fraction); higher = more cells survive
Motesanib + OSI-027 = compound: CC1(C)CNc2cc(NC(=O)c3cccnc3NCc3ccncc3)ccc21 [Motesanib] + COc1cccc2cc(-c3nc([C@H]4CC[C@H](C(=O)O)CC4)n4ncnc(N)c34)[nH]c12 [OSI-027] (partner 0.5 µM)
Summary of the method: (§1)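 Dosing by pin tool came one day after lung cancer cell lines were seeded in 1536-well plates, using either one drug or a fixed anchor-drug dose plus five library-drug doses (not always all listed) in √10 steps. After 5 days, nuclei were counted on 4× images. Relative viability is treated-well nuclei count divided by vehicle-well nuclei count, and values are medians of duplicate plates.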

Motesanib + Tozasertib = compound: CC1(C)CNc2cc(NC(=O)c3cccnc3NCc3ccncc3)ccc21 [Motesanib] + Cc1cc(Nc2cc(N3CCN(C)CC3)nc(Sc3ccc(NC(=O)C4CC4)cc3)n2)n[nH]1 [Tozasertib] (partner 0.1 µM)
Summary of the method: as §1

Motesanib + AZD7762 = compound: CC1(C)CNc2cc(NC(=O)c3cccnc3NCc3ccncc3)ccc21 [Motesanib] + NC(=O)Nc1cc(-c2cccc(F)c2)sc1C(=O)N[C@H]1CCCNC1 [AZD7762] (partner 0.2 µM)
Summary of the method: as §1

[1] = compound: C[C@@]1(C(=O)Nc2ccc(F)nc2)CCCN1c1nc(Nc2cc(C3CC3)n[nH]2)c2cccn2n1 + Cc1nc(NC(=O)N2CCC[C@H]2C(N)=O)sc1-c1ccnc(C(C)(C)C(F)(F)F)c1 [Alpelisib] (partner 2 µM)
Summary of the method: as §1

Row | Cell Line | relative viability (Motesanib + OSI-027; first compound 0.01 µM) | relative viability (Motesanib + OSI-027; first compound 0.03162 µM) | relative viability (Motesanib + OSI-027; first compound 0.3162 µM) | relative viability (Motesanib + OSI-027; first compound 1 µM) | relative viability (Motesanib + Tozasertib; first compound 0.01 µM) | relative viability (Motesanib + Tozasertib; first compound 0.03162 µM) | relative viability (Motesanib + Tozasertib; first compound 0.3162 µM) | relative viability (Motesanib + Tozasertib; first compound 1 µM) | relative viability (Motesanib + AZD7762; first compound 0.01 µM) | relative viability (Motesanib + AZD7762; first compound 0.03162 µM) | relative viability (Motesanib + AZD7762; first compound 0.1 µM) | relative viability (Motesanib + AZD7762; first compound 0.3162 µM) | relative viability (Motesanib + AZD7762; first compound 1 µM) | relative viability ([1]; first compound 0.04 µM) | relative viability ([1]; first compound 0.1265 µM) | relative viability ([1]; first compound 0.4 µM) | relative viability ([1]; first compound 1.265 µM) | relative viability (Motesanib + OSI-027; first compound 0.1 µM) | relative viability (Motesanib + Tozasertib; first compound 0.1 µM)
1 | EPLC-272H | 0.236 | 0.311 | 0.263 | 0.244 | 0.293 | 0.234 | 0.253 | 0.253 | 0.145 | 0.268 | 0.151 | 0.21 | 0.267 | 1.03 | 0.876 | 0.719 | 1.1 |  | 
2 | NCI-H1915 | 0.575 | 0.72 | 0.631 | 0.632 | 0.401 | 0.408 | 0.456 | 0.434 | 0.676 | 0.66 | 0.747 | 0.711 | 0.755 | 1.09 | 1.08 | 1.04 | 1.06 | 0.625 | 0.478
3 | NCI-H2405 |  | 0.59 | 0.663 | 0.719 |  | 0.602 | 0.769 | 0.784 | 0.629 | 0.632 | 0.691 | 0.812 | 0.765 | 0.785 | 0.688 | 0.552 | 0.573 | 0.683 | 0.814
4 | NCI-H322M | 0.471 | 0.584 | 0.584 | 0.566 | 0.494 | 0.442 | 0.485 | 0.447 | 0.568 | 0.531 | 0.53 | 0.488 | 0.452 | 0.694 | 0.539 | 0.557 | 0.895 | 0.506 | 0.502
5 | NCI-H2170 | 0.686 | 0.687 | 0.718 | 0.775 | 0.64 | 0.679 | 0.832 | 0.659 | 0.871 | 0.865 | 0.82 | 0.75 | 0.755 | 0.728 | 0.658 | 0.606 | 0.728 | 0.748 | 0.709
6 | NCI-H1395 | 0.576 | 0.579 | 0.636 | 0.564 | 0.777 | 0.779 | 0.757 | 0.773 | 0.387 | 0.372 | 0.39 | 0.405 | 0.399 | 0.988 | 0.719 | 1.15 | 1.1 | 0.658 | 0.816
7 | NCI-H358 | 0.9 | 0.802 | 0.906 | 0.716 | 0.103 | 0.103 | 0.103 | 0.107 | 0.434 | 0.626 | 0.481 | 0.661 | 0.55 | 0.505 | 0.427 | 0.344 | 0.406 | 0.767 | 0.104
8 | NCI-H838 | 0.448 | 0.313 | 0.438 | 0.415 | 0.296 | 0.244 | 0.236 | 0.249 | 0.895 | 0.872 | 0.984 | 1 | 0.994 | 1.05 | 0.819 | 0.815 | 0.982 | 0.394 | 0.255
9 | CAL-12T | 0.628 | 0.731 | 0.555 | 0.677 | 0.348 | 0.254 | 0.384 | 0.371 | 0.518 | 0.637 | 0.684 | 0.69 | 0.578 | 1.16 | 1.14 | 0.762 | 0.953 | 0.685 | 0.351
